Earlier results, collected in patent publication US5681568A, “Device for delivery of substances and methods of use thereof” (Cambridge NeuroScience, Inc., priority 1994, dated 1997).

What was measured:
nerve regeneration = conditions: in vivo
[1] = in vivo
[2] = presence of heparin
[3] = tested on: experimental cerebral ischemia; conditions: after experimental cerebral ischemia, rabbit
[4] = tested on: hypoxic/ischemic brain injury; conditions: rat

In the case of bFGF: Basic fibroblast growth factor, the “effect on nerve regeneration” value (nerve regeneration) is given as “therapeutic relevant effect on nerve regeneration”.

In the case of `CSCC[C@@H]1NC(=O)[C@H](CC(C)C)NC(=O)[C@H](CCCNC(=N)N)NC(=O)[C@H](CO)NC(=O)[C@@H]2CSSC[C@@H]3NC(=O)[C@H](CO)NC(=O)CNC(=O)[C@H]([C@@H](C)O)NC(=O)[C@H](CSSC[C@H](N)C(=O)N[C@@H](CCCCN)C(=O)NCC(=O)N[C@@H](CCCCN)C(=O)NCC(=O)N[C@@H](C)C(=O)N[C@@H](CCCCN)C(=O)N2)NC(=O)[C@H](CSSC[C@@H](C(N)=O)NC(=O)[C@H](CCCCN)NC(=O)CNC(=O)[C@H](CO)NC(=O)[C@H](CCCNC(=N)N)NC3=O)NC(=O)[C@H](CC(=O)O)NC(=O)[C@H](Cc2ccc(O)cc2)NC1=O` [SNX111], the toxic side effects [1] is given as “severe hypotension”.

For “acidic FGF: member of the fibroblast growth factor (FGF) family known to associate with heparin”, the “effect of heparin on the factor's activity” value [2] is listed as “can potentiate the factor's activity”.

For TGFβ1: Transforming growth factor β1, the “effect on infarct size” value [3] is given as “reduce infarct size” and the “effects in models of hypoxic/ischemic brain injury” value [4] is given as “therapeutically relevant effects”.

For “IGF-1: insulin-like growth factors (IGFs)”, the “effects in models of hypoxic/ischemic brain injury” value [4] is given as “therapeutically relevant effects”.
